Legend:
[1] = Passive Avoidance Anoxic Induced Amnesia Test in mice; type: in vivo, Swiss-Webster mice; conditions: vs saline control, 30% considered active
Text: Another in vivo test associated with decreased neural function in mammals is the Passive Avoidance Anoxic Induced Amnesia Test. This test is used to determine the attenuation of anoxic induced amnesia in mice treated with drug, as compared to saline treated control animals with no drug.
A shock-motivated, single trial, step-through passive avoidance procedure is used. Groups of 25 Swiss-Webster, middle-aged mice (9 months of age) are placed singly in the front chamber of a 2-chamber box and are allowed to voluntarily cross into the rear chamber. As soon as the mouse enters the rear chamber, a door automatically traps the animal and a mild electric shock (0.4 mA for 4 seconds) is delivered to its feet. Following the foot shock, the mice are initially placed in an anoxic environment (0% oxygen) for 12 seconds, which quickly induces unconsciousness. They are then placed in an hypoxic environment (15% oxygen) for four minutes which prolongs the oxygen deprived state, maintaining unconsciousness. All testing is performed 24 hours later, and in all cases the mice appear fully recovered from the previous anoxic/hypoxic treatment. All test compounds are administered intraperitoneally at a dose of 10-200 mg/kg, 30 minutes prior to training and testing. Control animals are injected intraperitoneally only with saline at 0.01 cc/g of body weight.
The latency to enter the rear chamber is recorded for both training and testing. Presumably, the more the animal remembers being shocked, the greater it will inhibit going into the rear chamber and the higher will be its latency to re-enter. An improvement of 30% over saline control scores is considered active.

[2] = test system: brain-specific receptors of rats (3H-benzodiazepine binding); experiment: Inhibition of the binding of 3H-benzodiazepine to brain-specific receptors of rats; design: species or system rat (Wistar strain); conditions: rat cortex P2 fraction; 3H-diazepam 1.5 nM or 3H-flunitrazepam 1.0 nM; test concentration not given; 12% or more is active
Text: A test utilized for the determination of anxiolytic activity is the measurement of the ability of test compounds to inhibit the binding of tritiated benzodiazepines to brain-specific receptors of warm-blooded animals. A modification of the method described by R. F. Squires, et al., Nature, 266, No. 21, pg 732 (Apr. 1977) and H. Mohler, et al., Science, 198, pg 849 (1977) was employed.
Male albino rats (Wistar strain, weighing 150-200 g each) were used. The test compounds were solubilized in either dimethylformamide, acetic acid, ethanol or hydrochloric acid.
Whole cortex of rats was homogenized gently in 20 volumes of ice-cold 0.32 M sucrose, centrifuged twice at 1000 g for 10 minutes and then recentrifuged at 30,000 g for 20 minutes to produce a crude P2 -synaptosomal fraction. The P2 -fraction was either: (1) resuspended in twice the original volume in hypotonic 50 mM Tris.HCl (pH 7.4), or (2) resuspended in one-half the original volume in hypotonic 10 mM Tris.HCl (pH 7.4) and frozen (-20° C.) until time of use. Frozen P2 preparations were thawed and resuspended in four times the original homogenizing volume at time of assay.
The binding assay consisted of 300 μl of the P2 -fraction suspension (0.2-0.4 mg protein), 100 μl of test drug and 100 μl of ^3 H-diazepam (1.5 nM, final concentration) or ^3 H-flunitrazepam (1.0 nM, final concentration) which was added to 1.5 ml of 50 mM Tris.HCl (pH 7.4). Non-specific binding controls and total binding controls received 100 μl of diazepam (3 μM final concentration) and 100 μl of deionized water, respectively, in place of the test compound. Incubation for 30 minutes proceeded in ice and was terminated by filtration, under vacuum, through glass fiber filters. […] After drying at 50°-60° C. for 30 minutes, 10 ml of diluent was added and the radioactivity determined in a scintillation counter.
Inhibition of binding was calculated by the difference between total binding and binding in the presence of test compound, divided by the total binding, X 100. […]

[3] = Hypoxic Survival Test in mice; type: in vivo, Royal Hart mice; conditions: survival after 5 minutes; for % Survivors: 30 min before hypoxia
Procedure: A useful in vivo test that measures how effectively central nervous system-acting drugs enhance survival in a hypoxic environment, presumably by improving the ratio of energy supply to demand is known as the Hypoxic Survival Test. […] Drugs are tested by intraperitoneally injecting groups of mice 30 minutes prior to placing them in a hypoxic mixture and measuring survival. The rationale of this test is that drugs which enhance survival under hypoxic conditions without concomitant, depression or sedative side effects, may do so by enhancing energy metabolism, or by preserving normal brain function under conditions of reduced energy metabolism. Given the dependence of the brain on a constant supply of energy, drugs which have this property may have many far-reaching therapeutic indications, including recovery from stroke and closed head injury, as well as reducing the deleterious effects of the aging central nervous system.
Groups of 20 Royal Hart mice (6 weeks of age) are injected intraperitoneally with test compound (1-200 mg/kg) 30 minutes prior to placing them in a hypoxic mixture (10% oxygen in 90% […]) and measuring survival after 5 minutes.
A separate group of 20 mice is injected intraperitoneally with saline solution (0.01 cc/g of body weight) and processed as described above.
Still another group of 20 mice is injected intraperitoneally with 0.125 mg/kg of physostigmine and processed as described above.

[4] = Reduction of mean arterial blood pressure in spontaneously hypertensive rats; type: in vivo, spontaneously hypertensive rats of the Okamoto strain; conditions: gavage, 100 mg/kg or less, two doses 24 h apart, measured at 28 hours; average mean arterial blood pressure of the rats 160 mm Hg
Procedure: Certain of the novel compounds of the present invention are active hypotensive agents at non-toxic doses when administered to mammals. These compounds were tested for hypotensive activity by the method of P. S. Chan and D. Poorvin, Clinical and Experimental Hypertension, 1 (6), 817-830 (1979). Male, 16 week old, spontaneously hypertensive rats of the Okamoto strain having an average mean arterial blood pressure of 160+1.5 mm of mercury are used in the test. One to 3 rats are used per test compound. A rat is dosed by gavage with a test compound, suspended in 2% pre-boiled starch at a concentration of 50 mg/ml, at a dose of 100 mg/kg of body weight or less, with 0.9% sodium chloride loading at a dose of 25 ml/kg of body weight. A second identical dose of the test compound, without sodium chloride loading is given 24 hours later. At 28 hours after the initial dose the mean arterial blood pressure is measured by the method of Chan and Poorvin vide supra. The procedure is repeated in a second and third rat when necessary.

O=c1[nH]c(=O)n2c3c1ncn3C(c1cccc(C(F)(F)F)c1)=CC2 [4-[3-(Trifluoromethyl)phenyl]-6H,8H-pyrimido[1,2,3-cd]purine-8,10(9H)-dione]
% Improvement ([1]; 50 mg/kg i.p.): 144%
% Improvement ([1]; 100 mg/kg i.p.): 44%
% Inhibition of the binding of 3H-benzodiazepine [2]: 54%

CCn1c(=O)c2ncn3c2n(c1=O)CC=C3c1cccc(C(F)(F)F)c1 [9-Ethyl-4-[3-(trifluoromethyl)phenyl]-6H,8H-pyrimido[1,2,3-cd]purine-8,10(9H)-dione]
% Inhibition of the binding of 3H-benzodiazepine [2]: 17%

O=c1[nH]c(=O)n2c3c1ncn3C(c1cccc(Cl)c1)=CC2 [4-(3-Chlorophenyl)-6H,8H-pyrimido[1,2,3-cd]purine-8,10(9H)-dione]
% Improvement ([1]; 25 mg/kg i.p.): 42%
% Improvement ([1]; 50 mg/kg i.p.): 43%

O=c1[nH]c(=O)n2c3c1ncn3C(c1cccc([N+](=O)[O-])c1)=CC2 [4-(3-Nitrophenyl)-6H,8H-pyrimido[1,2,3-cd]purine-8,10(9H)-dione]
% Survivors ([3]; 200 mg/kg i.p.): 47%

Cc1ccc(C2=CCn3c(=O)[nH]c(=O)c4ncn2c43)cc1 [4-(4-Methylphenyl)-6H,8H-pyrimido[1,2,3-cd]purine-8,10(9H)-dione]
Mean arterial blood pressure [4]: 127 mm Hg

CNC(=O)Oc1ccc2c(c1)[C@]1(C)CCN(C)[C@@H]1N2C [physostigmine, reference compound]
physostigmine treated mice surviving ([3]; 10% oxygen, 0.125 mg/kg i.p., saline controls 5-20%): 60-80%

Cn1c(=O)c2ncn3c2n(c1=O)CC=C3c1cccc(C(F)(F)F)c1 [9-Methyl-4-[3-(trifluoromethyl)phenyl]-6H,8H-pyrimido[1,2,3-cd]purine-8,10(9H)-dione]
% Improvement ([1]; 10 mg/kg i.p.): 66%
% Improvement ([1]; 25 mg/kg i.p.): 69%
% Improvement ([1]; 50 mg/kg i.p.): 56%
% Improvement ([1]; 100 mg/kg i.p.): 39%

O=c1c2ncn3c2n(c(=O)n1Cc1ccccc1)CC=C3c1cccc(C(F)(F)F)c1 [9-(Phenylmethyl)-4-[3-(trifluoromethyl)phenyl]-6H,8H-pyrimido[1,2,3-cd]purine-8,10(9H)-dione]
Mean arterial blood pressure [4]: 132 mm Hg

O=c1[nH]c(=O)n2c3c1ncn3C(c1cccnc1)=CC2 [4-(3-Pyridinyl)-6H,8H-pyrimido[1,2,3-cd]purine-8,10(9H)-dione]
Mean arterial blood pressure [4]: 127 mm Hg

CSc1nc(=O)c2ncn3c2n1CC=C3c1ccccc1 [8-(Methylthio)-4-phenyl-6H,10H-pyrimido[1,2-cd]-purin-10-one]
% Inhibition of the binding of 3H-benzodiazepine [2]: 13%

O=c1[nH]c(=O)n2c3c1ncn3C(c1ccc(N3CCOCC3)cc1)=CC2 [4-[4-(4-Morpholinyl)phenyl]-6H,8H-pyrimido[1,2,3-cd]purine-8,10(9H)-dione]
% Survivors ([3]; 100 mg/kg i.p.): 55%
% Improvement ([1]; 25 mg/kg i.p.): 34%
